Experimental data published in patent publication EP0186440A2, “Method for producing benzoic acid derivatives” (Takeda Chemical Industries, Ltd., priority 1984, dated 1986).
Where two headings read alike, the source gives them in different places.

Key:
[1] = parameters: species or system male mice of Jcl:ICR strain; details: mouse, in vivo, po
Protocol: Five 5-week-old male mice of Jcl:ICR strain, weighing about 30 g each, were used. Compound A, C or E was suspended in a 5% solution of gum arabic and administered orally at the level of 0.2 ml per 10 grams body weight.

[2] = tested on: synthetic leukotriene D4 (LTD4); experiment: Bronchoconstriction in guinea pigs due to intravenous LTD4 (Konzett-Rössler method), compound given orally one hour before; type: in vivo, Guinea pigs of the Hartley strain; details: Cavia porcellus, 1 h; 50% inhibitory dose; oral, one hour before LTD4 (10 µg/kg i.v.); inhibition of overflowing volume at maximal response, 30 seconds after LTD4; read-out: ID50(p.o.)
Protocol: Guinea pigs of the Hartley strain, both male and female, with body weights of about 400 g were assigned to groups of 6-10 individuals, and the bronchoconstriction due to LTD4 was measured according to the method of Konzett-Rossler, [Konzett, H. and Rössler, R.: Naunyn-Schmidebergs Archiv für Experimentelle Pathologie und Pharmakologie, 195, 71-74 (1940).] Each guinea pig was fixed in a supine position under urethane anesthesis (1.5 g/kg, intraperitoneal) and the trachea was incised and connected to an artificial respiration apparatus, Rodent Respirator Model 680 [Harvard Apparatus Company, U.S.A.] via a cannula. The branch tube of this tracheal cannula was connected to a Bronchospasm Transducer Model 7020 [Ugobasil Biological Research Apparatus, Italy]. Under the conditions of 4 to 7 ml of air per stroke, 70 strokes per minute and a lung loading pressure of 10 cmH20, the volume of overflowing air was recorded on Rectigraph-8S (San-eiSokki Ltd., Japan) via a transducer. After administration of gallamine triethiodide (1'mg/kg, i.v.), a solution of LTD4 in physiological saline (10 µg/kg) was intravenously administered and the bronchoconstriction elicited thereby was recorded for 15 minutes. The compound was used as suspended in a 5% solution of gum arabic or dissolved in water, and administered orally in a volume of 0.2 ml per 100 c body weight one hour before LTD4 loading. […]

Compound	Autopsy after 7 days ([1]; 2000 mg/kg)	symptoms attributable to the compound (acute toxicity) ([1]; 2000 mg/kg)	ED50 [2]	Autopsy after 7 days ([1]; 500 mg/kg)	symptoms attributable to the compound (acute toxicity) ([1]; 500 mg/kg)
CCCc1c(OCCCOc2ccc(C(=O)OCCN3CCOCC3)cc2Br)ccc(C(C)=O)c1O [C, 2-morpholinoethyl 4-[3-(4-acetyl-3-hydroxy-2-propylphenoxy)propoxy]-3-bromobenzoate]	did not reveal any abnormalities	no symptoms	–	–	–
CCCc1c(OCCCOc2ccc(C(=O)O)cc2Br)ccc(C(C)=O)c1OC(C)=O [Compound A, 4-[3-(3-acetoxy-4-acetyl-2-propylphenoxy)propoxy]-3-bromobenzoic acid]	–	–	47 µmol/kg	did not reveal any abnormalities	no symptoms
CCCc1c(OCCCOc2ccc(C(=O)OCCCN(C)C)cc2Br)ccc(C(C)=O)c1O [E, 3-dimethylaminopropyl 4-[3-(4-acetyl-3-hydroxy-2-propylphenoxy)propoxy]-3-bromobenzoate]	did not reveal any abnormalities	no symptoms	–	–	–
